Reference: US20060008512A1, “Composition and methods for improved animal performance” (priority 2004, published 2006)
Read-outs that look alike come from different tables or passages of the source.

System: Hy-Line W-36 White Leghorn hens
Conditions: for Egg Shell, % (washed, dried): 6 & 10 d rooms combined; for Whole egg weight (mean±SEM): 4 day period after start of test diets
Protocol: Experiment 2. […] The photoperiod was 17 hours of light per day (0330 hours to 2030 hours).
The objective was to use T4 to humanely induce molting in hens that are continuously provided with ad libitum access to palatable feed meeting or exceeding all National Research Council (1994) standards. Developing a fully efficacious yet affordable molting protocol was predicated on determining the minimum effective level for T4 supplementation. Factors that potentially may affect the required level of T4 supplementation include: (1) uncertainty regarding the efficiency of T4 absorption by the gastrointestinal tract, (2) the possibility that continuous dietary ingestion of T4 could trigger substantially different biological responses when compared single daily injections, and (3) the likelihood that daily T4 intake would diminish in parallel with molt-related reductions in feed intake associated with cessation in egg production. A spontaneous and voluntary loss of appetite (anorexia) commonly accompanies seasonal molting and broodiness in a variety of avian species (Berry, 2003; Webster, 2003). Accordingly, the responses of hens to diets containing 10, 20, and 40 mg T4/kg, to bracket the anticipated range of T4 needed to cause an effective molt, were determined.

[1] = 10 mg/kg of feed 6 d from day 5, Day 7
[2] = 10 mg/kg of feed 6 d from day 5, Day 10
[3] = 10 mg/kg of feed 6 d from day 5, Day 14
[4] = 10 mg/kg of feed 6 d from day 5, Day 30
[5] = 10 mg/kg of feed 10 d from day 5, Day 7
[6] = 10 mg/kg of feed 10 d from day 5, Day 10
[7] = 10 mg/kg of feed 10 d from day 5, Day 14
[8] = 10 mg/kg of feed 10 d from day 5, Day 30
[9] = 20 mg/kg of feed 6 d from day 5, Day 7
[10] = 20 mg/kg of feed 6 d from day 5, Day 10
[11] = 20 mg/kg of feed 6 d from day 5, Day 14
[12] = 20 mg/kg of feed 6 d from day 5, Day 30
[13] = 20 mg/kg of feed 10 d from day 5, Day 7
[14] = 20 mg/kg of feed 10 d from day 5, Day 10
[15] = 20 mg/kg of feed 10 d from day 5, Day 14
[16] = 20 mg/kg of feed 10 d from day 5, Day 30
[17] = 40 mg/kg of feed 6 d from day 5, Day 7
[18] = 40 mg/kg of feed 6 d from day 5, Day 10
[19] = 40 mg/kg of feed 6 d from day 5, Day 14
[20] = 40 mg/kg of feed 6 d from day 5, Day 30
[21] = 40 mg/kg of feed 10 d from day 5, Day 7
[22] = 40 mg/kg of feed 10 d from day 5, Day 10
[23] = 40 mg/kg of feed 10 d from day 5, Day 14
[24] = 40 mg/kg of feed 10 d from day 5, Day 30

N[C@@H](Cc1cc(I)c(Oc2cc(I)c(O)c(I)c2)c(I)c1)C(=O)O [L-thyroxine, 3,5,3′,5′-tetraiodo-L-thyronine]
Onset of molt after T4 feeding was initiated (10 mg T4/kg, 10 days on test diets, half of the hens): 11 days
Body weight (BW) (10 mg/kg of feed 6 d from day 5, Day 1): 1501 g
Body weight (BW) [1]: 1377 g
Body weight change from day 1 (% BWC) [1]: −8.3%
Body weight (BW) [2]: 1293 g
Body weight change from day 1 (% BWC) [2]: −13.9%
Body weight (BW) [3]: 1424 g
Body weight change from day 1 (% BWC) [3]: −5.1%
Body weight (BW) [4]: 1483 g
Body weight change from day 1 (% BWC) [4]: −1.2%
Hen-day egg production (10 mg/kg of feed 6 d from day 5, day 4): 75%
Hen-day egg production (10 mg/kg of feed 6 d from day 5, day 6): 58%
Hen-day egg production (10 mg/kg of feed 6 d from day 5, day 8): 25%
Hen-day egg production (10 mg/kg of feed 6 d from day 5, day 10): 8%
Hen-day egg production (10 mg/kg of feed 6 d from day 5, day 12): 17%
Hen-day egg production (10 mg/kg of feed 6 d from day 5, day 14): 0%
Hen-day egg production (10 mg/kg of feed 6 d from day 5, day 16): 33%
Hen-day egg production (10 mg/kg of feed 6 d from day 5, day 18): 25%
Hen-day egg production (10 mg/kg of feed 6 d from day 5, day 20): 58%
Hen-day egg production (10 mg/kg of feed 6 d from day 5, day 22): 75%
Hen-day egg production (10 mg/kg of feed 6 d from day 5, day 24): 83%
Hen-day egg production (10 mg/kg of feed 6 d from day 5, day 26): 42%
Hen-day egg production (10 mg/kg of feed 6 d from day 5, day 28): 83%
Hen-day egg production (10 mg/kg of feed 6 d from day 5, day 30): 75%
Body weight (BW) (10 mg/kg of feed 10 d from day 5, Day 1): 1477 g
Body weight (BW) [5]: 1372 g
Body weight change from day 1 (% BWC) [5]: −7.1%
Body weight (BW) [6]: 1335 g
Body weight change from day 1 (% BWC) [6]: −9.6%
Body weight (BW) [7]: 1314 g
Body weight change from day 1 (% BWC) [7]: −11.0%
Body weight (BW) [8]: 1400 g
Body weight change from day 1 (% BWC) [8]: −5.2%
Hen-day egg production (10 mg/kg of feed 10 d from day 5, day 4): 58%
Hen-day egg production (10 mg/kg of feed 10 d from day 5, day 6): 50%
Hen-day egg production (10 mg/kg of feed 10 d from day 5, day 8): 42%
Hen-day egg production (10 mg/kg of feed 10 d from day 5, day 10): 17%
Hen-day egg production (10 mg/kg of feed 10 d from day 5, day 12): 17%
Hen-day egg production (10 mg/kg of feed 10 d from day 5, day 14): 17%
Hen-day egg production (10 mg/kg of feed 10 d from day 5, day 16): 17%
Hen-day egg production (10 mg/kg of feed 10 d from day 5, day 18): 25%
Hen-day egg production (10 mg/kg of feed 10 d from day 5, day 22): 33%
Hen-day egg production (10 mg/kg of feed 10 d from day 5, day 24): 50%
Hen-day egg production (10 mg/kg of feed 10 d from day 5, day 26): 25%
Hen-day egg production (10 mg/kg of feed 10 d from day 5, day 28): 25%
Hen-day egg production (10 mg/kg of feed 10 d from day 5, day 30): 33%
Egg Shell, % (washed, dried) (10 mg/kg of feed, Days 2 to 4): 7.93 (n = 6) %
Egg Shell, % (washed, dried) (10 mg/kg of feed, Days 5 to 6): 7.39 (n = 9) %
Egg Shell, % (washed, dried) (10 mg/kg of feed, Days 7 to 8): 6.63 (n = 8) %
Body weight (BW) (20 mg/kg of feed 6 d from day 5, Day 1): 1582 g
Body weight (BW) [9]: 1434 g
Body weight change from day 1 (% BWC) [9]: −9.4%
Body weight (BW) [10]: 1373 g
Body weight change from day 1 (% BWC) [10]: −13.2%
Body weight (BW) [11]: 1491 g
Body weight change from day 1 (% BWC) [11]: −3.9%
Body weight (BW) [12]: 1521 g
Body weight change from day 1 (% BWC) [12]: −3.9%
Hen-day egg production (20 mg/kg of feed 6 d from day 5, day 4): 94%
Hen-day egg production (20 mg/kg of feed 6 d from day 5, day 6): 69%
Hen-day egg production (20 mg/kg of feed 6 d from day 5, day 8): 17%
Hen-day egg production (20 mg/kg of feed 6 d from day 5, day 10): 0%
Hen-day egg production (20 mg/kg of feed 6 d from day 5, day 12): 17%
Hen-day egg production (20 mg/kg of feed 6 d from day 5, day 14): 14%
Hen-day egg production (20 mg/kg of feed 6 d from day 5, day 16): 33%
Hen-day egg production (20 mg/kg of feed 6 d from day 5, day 18): 39%
Hen-day egg production (20 mg/kg of feed 6 d from day 5, day 20): 47%
Hen-day egg production (20 mg/kg of feed 6 d from day 5, day 22): 64%
Hen-day egg production (20 mg/kg of feed 6 d from day 5, day 24): 64%
Hen-day egg production (20 mg/kg of feed 6 d from day 5, day 26): 78%
Hen-day egg production (20 mg/kg of feed 6 d from day 5, day 28): 89%
Hen-day egg production (20 mg/kg of feed 6 d from day 5, day 30): 61%
Body weight (BW) (20 mg/kg of feed 10 d from day 5, Day 1): 1680 g
Body weight (BW) [13]: 1533 g
Body weight change from day 1 (% BWC) [13]: −8.8%
Body weight (BW) [14]: 1431 g
Body weight change from day 1 (% BWC) [14]: −14.8%
Body weight (BW) [15]: 1373 g
Body weight change from day 1 (% BWC) [15]: −18.3%
Body weight (BW) [16]: 1448 g
Body weight change from day 1 (% BWC) [16]: −13.8%
Egg Shell, % (washed, dried) (20 mg/kg of feed, Days 2 to 4): 8.38 (n = 10) %
Egg Shell, % (washed, dried) (20 mg/kg of feed, Days 5 to 6): 8.08 (n = 13) %
Egg Shell, % (washed, dried) (20 mg/kg of feed, Days 7 to 8): 5.56 (n = 2) %
Egg production (40 mg T4/kg diet for 10 days): cease completely
Body weight (BW) (40 mg/kg of feed 6 d from day 5, Day 1): 1629 g
Body weight (BW) [17]: 1443 g
Body weight change from day 1 (% BWC) [17]: −11.4%
Body weight (BW) [18]: 1350 g
Body weight change from day 1 (% BWC) [18]: −17.1%
Body weight (BW) [19]: 1396 g
Body weight change from day 1 (% BWC) [19]: −14.3%
Body weight (BW) [20]: 1481 g
Body weight change from day 1 (% BWC) [20]: −9.1%
Hen-day egg production (40 mg/kg of feed 6 d from day 5, day 4): 67%
Hen-day egg production (40 mg/kg of feed 6 d from day 5, day 6): 42%
Hen-day egg production (40 mg/kg of feed 6 d from day 5, day 8): 8%
Hen-day egg production (40 mg/kg of feed 6 d from day 5, day 10): 0%
Hen-day egg production (40 mg/kg of feed 6 d from day 5, day 12): 0%
Hen-day egg production (40 mg/kg of feed 6 d from day 5, day 14): 0%
Hen-day egg production (40 mg/kg of feed 6 d from day 5, day 16): 0%
Hen-day egg production (40 mg/kg of feed 6 d from day 5, day 18): 8%
Hen-day egg production (40 mg/kg of feed 6 d from day 5, day 20): 25%
Hen-day egg production (40 mg/kg of feed 6 d from day 5, day 22): 25%
Hen-day egg production (40 mg/kg of feed 6 d from day 5, day 24): 50%
Hen-day egg production (40 mg/kg of feed 6 d from day 5, day 26): 17%
Hen-day egg production (40 mg/kg of feed 6 d from day 5, day 28): 33%
Hen-day egg production (40 mg/kg of feed 6 d from day 5, day 30): 33%
Body weight (BW) (40 mg/kg of feed 10 d from day 5, Day 1): 1572 g
Body weight (BW) [21]: 1392 g
Body weight change from day 1 (% BWC) [21]: −11.5%
Body weight (BW) [22]: 1309 g
Body weight change from day 1 (% BWC) [22]: −16.7%
Body weight (BW) [23]: 1245 g
Body weight change from day 1 (% BWC) [23]: −20.8%
Body weight (BW) [24]: 1322 g
Body weight change from day 1 (% BWC) [24]: −15.9%
Egg Shell, % (washed, dried) (40 mg/kg of feed, Days 2 to 4): 8.34 (n = 6) %
Egg Shell, % (washed, dried) (40 mg/kg of feed, Days 5 to 6): 7.82 (n = 6) %
Egg Shell, % (washed, dried) (40 mg/kg of feed, Days 7 to 8): 6.63 (n = 3) %
Mortality (10, 20, 40 mg T4/kg diets, 6 or 10 days): No mortal-ity occurred
Whole egg weight (mean±SEM) (10 ppm T4): 62 ± 2 g
Time to reduced egg production (20 and 40 mg T4/kg feed): ≤ 4 days
Whole egg weight (mean±SEM) (20 ppm T4): 65 ± 2 g
Whole egg weight (mean±SEM) (40 ppm T4): 65 ± 3 g
Size of regressed reproductive tracts at necropsy (hens that had entirely ceased egg production after the test diets): ≤ 50 % normal size
